From ChEMBL document CHEMBL1143191, “The synthesis and biological evaluation of a range of novel functionalized benzopyrans as potential potassium channel activators” (2008) come the findings set out here.

Common to all, as to assay type: functional, Thorax
For assay [1], the system named is Thoracic. Nature of the assay: Vasorelaxation activity against phenylephrine-stimulated contraction in rat thoracic tissue assessed as time taken for relaxation at 10 uM.
The subject of assay [2] is Thoracic. The assay is described as follows: Vasorelaxation activity against phenylephrine-stimulated contraction in rat thoracic tissue at 10 uM. Details: scale not given: the % may be the effect or the level left.
For assay [3], the system named is Thoracic. The assay is described as follows: Vasorelaxation activity against phenylephrine-stimulated contraction in rat thoracic tissue at 40 uM. Also noted: scale not given: the % may be the effect or the level left.
The subject of assay [4] is Thoracic. Nature of the assay: Vasorelaxation activity against phenylephrine-stimulated contraction in rat thoracic tissue at 20 uM in presence of glibenclamide. Also noted: scale not given: the % may be the effect or the level left.
Assay [5] has as its system Thoracic. Nature of the assay: Vasorelaxation activity against phenylephrine-stimulated contraction in rat thoracic tissue assessed as time taken for relaxation at 40 uM.
For assay [6], the system named is Thoracic. The assay is described as follows: Vasorelaxation activity against phenylephrine-stimulated contraction in rat thoracic tissue at 1 uM. Also noted: scale not given: the % may be the effect or the level left.

SMILES strings stand for the structures.

Regarding `CC(C)(F)[C@@H]1COc2ccc([N+](=O)[O-])cc2C1C#Cc1ccccc1` (single isomer, unassigned), the Time amounted to 40 min in the assay with Thoracic [1] and 30 min in the assay with Thoracic [5]. For the same compound, the values for the Activity with Thoracic [2], in the assay with Thoracic [3] and in the assay with Thoracic [4] were 43%, 88% and 30%, respectively.

On to `CC(C)(F)[C@@H]1COc2c(F)cccc2C1C#Cc1ccccc1` (single isomer, unassigned), for which the Time in the assay on Thoracic [1] is reported as 43 min; with Thoracic [5] it was 21 min. Further, the Activity with Thoracic [2] was 28%; with Thoracic [3] it was 92%; with Thoracic [4], 30%.

Regarding `CC(C)(F)[C@@H]1COc2ccc(F)cc2C1C#Cc1ccccc1` (single isomer, unassigned), the Time with Thoracic [1] came out at 55 min; in the assay with Thoracic [5], 33 min. Also, the results for the Activity in the assay with Thoracic [2], with Thoracic [3] and with Thoracic [4] were 36%, 83% and 44%, respectively.

In the case of `CC1(C)Oc2ccc(C#N)cc2[C@@H](N2CCCC2=O)[C@@H]1O` [CROMAKALIM], the figures for the Activity in the assay with Thoracic [2] and in the assay on Thoracic [6] were 72% and 56%, respectively.

On to `CC(C)(F)[C@@H]1COc2c(F)cc(F)cc2C1C#Cc1ccccc1` (single isomer, unassigned), for which the Time with Thoracic [1] was 41 min; in the assay on Thoracic [5], 24 min. The Activity in the assay on Thoracic [2] is recorded as 20%; in the assay with Thoracic [3], 65%.
